The source of these data is patent US12721801B2, “Compositions and methods relating to stimulation of hyaluronic acid” (Alastin Skincare, Inc., priority 2020, dated 2026).

One series has as its system human fibroblast cells. The series is described as follows: HA production assessment, SDS-PAGE of fibroblast supernatants. The settings on record: Experiment 2, primary adult human dermal fibroblasts, 72 hours, octapeptide 100 ug/mL, SymDecanox 250 ug/mL, others 500 ug/mL, FIG. 6. The series is classed as cell-based. The method, then:
In a second experiment, HA production was also assessed with the test compounds below. Briefly, primary adult human dermal fibroblast cells were cultured until near confluent in 6 well plates. The cells were treated with the compounds and concentrations indicated to the right. After 72 hours, 100 μL of media were collected from each treatment condition and was concentrated in a SpeedVac concentrator to a final volume of ~10 uL.
All 10 μL of the supernatants were loaded onto an acrylamide gel (NuPAGE 4-12% Bis-Tris Protein Gel) and run at 200V for 3 hours. The gel was stained to detect the presence of HA. Data is seen in FIG. 6. […] Lane 11 is the negative control, representing the untreated cells. This band represents the cells constitutive level of HA. Treating the cells with all the indicated compounds (lanes 1-10) produced an increased level of high molecular weight HA. […]

A short description of series [1]: Preparation of compound stocks in DMSO (dissolution observed). Format: physicochemical. As for the experimental part:
(§1) Compounds. Stocks of compounds 1 through 8 on the list below were prepared in PBS at 100× the concentration indicated in red type. […] This stock was 100× of final concentration. A 20 mg/ml stock of compound 10 (CBD) was prepared in DMSO. […] This stock was 200× of final concentration.

Series [2] deals with Hyaluronic Acid Synthase 2 (HAS2). Kind of series: Gene expression study (RNA sequencing), HAS2 expression in keratinocytes. The settings on record: human keratinocytes, 24 hours of compound exposure, FIG. 2. Format: cell-based. The method, then: (§2) Cell Lines. Human adult dermal fibroblast and keratinocyte cell lines were treated with 11 different compound treatments (plus DMSO control as treatment #12). Primary fibroblasts, keratinocytes sourced from ZenBio. Primary cells were plated in cell specific media at 5K or 10K cells per cm^2 as per ZenBio instructions. Cells were plated in 48 well plates (Greiner) in triplicate, one cell line per plate. Media volume was 500 ul per well. Outer two columns of wells were not used. All rows were used. Cells were cultured for 2 days in 37° C. 5% CO2 incubator. After 48 hours all the cell cultures were uniform and appeared healthy, no appreciable number of floating dead cells or evidence of vacuolization of cells that might indicate apoptotic or dying cells.
as §1
(§3) Dosing. After 48 hours of attachment culture, fibroblasts and keratinocytes were treated with the test compounds. […]
(§4) RNA Lysate preparation. […] All samples were shipped frozen on dry ice to MedGenome for RNA extraction, library construction and sequencing to 25M paired end 100 bp reads per sample. […]

For the next series, the system named is Hyaluronidase 2 (HYAL2). The series is described as follows: Gene expression study (RNA sequencing), HYAL2 expression in keratinocytes. The series is classed as cell-based. To be noted: human keratinocytes, 24 hours of compound exposure, FIG. 3. As for the experimental part:
as §2, §1, §3, §4

Consider `CCCCCCCC(=O)CCc1ccc(O)c(OC)c1` [SymDecanox™, hydroxymethoxyphenyl decanone], for which the “Level of high molecular weight HA (band on gel)” value (from here on “Level”) in the series on human fibroblast cells is recorded as “secrete high molecular weight HA”.
phosphatidylserine: the “Level” value in the series with human fibroblast cells is “secrete high molecular weight HA”. For the same compound, the “Dissolution of stock in DMSO” value in series [1] (50 mg/ml stock in DMSO, extensive vortexing and warming) is listed as “did not fully go into solution”.
With `C=C(C)[C@@H]1CCC(C)=C[C@H]1c1c(O)cc(CCCCC)cc1O` [CBD], the “Dissolution of stock in DMSO” value in series [1] (20 mg/ml stock in DMSO) is given as “slightly cloudy”.
Regarding “tetradecyl-diaminobutyroylvalyldiaminobutyric urea trifluoroacetate [SynHycan]”, the “Level” value in the series on human fibroblast cells is recorded as “secrete high molecular weight HA”.
For “Hexapeptide-11: hexapeptide test agent; FVAPFP (SEQ ID NO: 19) is printed as a hexapeptide sequence, not tied explicitly”, in series [2], the “HAS2 expression in keratinocytes” value is given as “excellent upregulation”. Further, in the series with Hyaluronidase 2 (HYAL2), the “Hyaluronidase 2 (HYAL2) expression in keratinocytes” value was “potent downregulation”.
